# From US9422312B2, “Azabenzimidazole derivatives” (Boehringer Ingelheim International GmbH, priority 2014, dated 2016)
# Target: Activated AMPK complex 1 (containing alpha1beta1gamma1) (Homo sapiens (Human), UniProt Q13131+Q9Y478)
# Assay: in vitro AMPK activation assay (ADP-Glo Kinase Assay)
# Assay type: biochemical
# Conditions: 1 μM peptide substrate, 30 μM ATP, 60 min, room temperature, luminescence
# Text: Activated AMPK complex 1 (containing alpha1beta1gamma1) was obtained from baculovirus expression system. The gene encoding AMPK alpha1 was cloned into the pACG2T vector (BD Biosciences) to obtain a N-terminal Glutathion S transferase (GST)-fusion protein. The genes encoding AMPK beta 1 and gamma1 were cloned into the p2Bac dual multiple cloning site vector (Invitrogen) with beta1 under the control of the p10 promoter and gamma1 under the control of the PH promoter. The transfer vectors containing AMPK were co-transfected individually with AcPNV BacMagic-3 DNA (EMD Millipore) in Sf9 cells and the recombinant baculoviruses were harvested after 5 days, followed by 3 rounds of amplification of the virus stock in Sf9 cells. AMPK (alpha1beta1gamma1) was expressed in High Five 5 cells by co-infection of recombinant alpha1 virus and recombinant beta1/gamma1 virus for 72 h at 27° C. Cells were harvested by centrifugation and lysed by 3 freeze/thaw cycles in PBS with 10% glycerol and protease inhibitor cocktail (Roche). After centrifugation AMPK a1b1g1 in the supernatant was captured by immobilized glutathione (GE Healthcare), impurities were washed away with PBS and AMPK alpha1beta1gamma1 was eluted with PBS containing 20 mM reduced gluthathione. The protein buffer was then exchanged to PBS with 10% glycerol and protein concentration was determined by UV absorbance.
# The white 384-well Optiplates (cat. no. 6007299) were purchased from PerkinElmer. The V9101 ADP-Glo Kinase Assay and ultra pure ATP (V915A) was purchased from Promega. The substrate for AMPK (NH2-HMRSAMSGLHLVKRR_CONH2) was purchased from Upstate (12-355).
# Compounds were tested in either serial dilutions or single dose concentrations. The serial compound dilutions were prepared in 100% DMSO automatically. The final DMSO concentration in the assay was 0.1%.
# The Compound Stock Solutions were 10 mM in 100% DMSO. The compounds were solubilised at room temperature.
# In the 384-well plates 1.25 ul of test compound in assay buffer was mixed with 1.25 ul of AMPK and 1.25 μl of the peptide (final concentration of 1 μM) and 1.25 μl of ATP (final concentration of 30 μM), both dissolved in assay buffer. This step was followed by an incubation time of 60 min. Then 5 μl of ADP Glo Reagent was added. This was followed by 40 min of incubation. Then 10 μl of Kinase Detection Reagent was admixed. The plates were sealed and after an incubation period of 30 min, the luminescence signal was measured in an Envision reader. All incubation steps were accomplished at room temperature.
# Each assay microtiter plate contained wells with vehicle controls instead of compound (0.1% DMSO in water) as reference for the low signal (100% CTL, low signal), and wells with serial dilutions of AMP (final 30 μM) as reference for high signals.
# The luminescence signal generated was proportional to the ADP concentration produced and was correlated with AMPK activity. The analysis of the data was performed by the calculation of the percentage of ATP consumption of AMPK in the presence of the test compound compared to the consumption of ATP in the presence of AMPK without compound. (RLU(sample)/RLU(low control))*100[RLU=relative luminescence units]
# An activator of the AMPK enzyme gave values above 100% CTL.
# EC50 values based on dose response curves are calculated with the XIFIT software using the 4 Parameter Logistic Model or Sigmoidal Dose-Response Model.
# Chain of Activated AMPK complex 1 (containing alpha1beta1gamma1) (Q13131 whole entry): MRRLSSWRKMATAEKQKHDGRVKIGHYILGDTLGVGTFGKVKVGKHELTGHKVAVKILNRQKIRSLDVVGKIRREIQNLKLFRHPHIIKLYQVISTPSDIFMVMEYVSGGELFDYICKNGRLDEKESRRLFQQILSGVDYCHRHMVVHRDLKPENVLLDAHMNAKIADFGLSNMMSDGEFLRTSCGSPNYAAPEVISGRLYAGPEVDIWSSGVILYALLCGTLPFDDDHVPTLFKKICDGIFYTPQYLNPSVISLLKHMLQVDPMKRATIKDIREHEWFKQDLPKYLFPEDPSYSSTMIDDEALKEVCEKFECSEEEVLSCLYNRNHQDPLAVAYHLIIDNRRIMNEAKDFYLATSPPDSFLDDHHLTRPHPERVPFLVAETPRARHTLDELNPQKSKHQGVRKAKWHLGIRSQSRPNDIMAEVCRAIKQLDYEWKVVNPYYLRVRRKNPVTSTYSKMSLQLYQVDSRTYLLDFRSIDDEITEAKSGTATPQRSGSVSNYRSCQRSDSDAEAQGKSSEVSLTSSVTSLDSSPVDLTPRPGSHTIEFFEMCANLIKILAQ
# Chain of Activated AMPK complex 1 (containing alpha1beta1gamma1) (Q9Y478 whole entry): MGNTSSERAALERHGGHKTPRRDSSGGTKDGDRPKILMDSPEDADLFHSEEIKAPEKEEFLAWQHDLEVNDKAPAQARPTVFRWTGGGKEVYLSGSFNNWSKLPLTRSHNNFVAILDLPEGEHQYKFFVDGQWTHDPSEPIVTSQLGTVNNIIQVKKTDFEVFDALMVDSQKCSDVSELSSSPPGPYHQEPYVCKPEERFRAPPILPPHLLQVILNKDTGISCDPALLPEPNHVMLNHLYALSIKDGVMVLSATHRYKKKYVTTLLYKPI
# Chain of Activated AMPK complex 1 (containing alpha1beta1gamma1) (P54619 whole entry partner): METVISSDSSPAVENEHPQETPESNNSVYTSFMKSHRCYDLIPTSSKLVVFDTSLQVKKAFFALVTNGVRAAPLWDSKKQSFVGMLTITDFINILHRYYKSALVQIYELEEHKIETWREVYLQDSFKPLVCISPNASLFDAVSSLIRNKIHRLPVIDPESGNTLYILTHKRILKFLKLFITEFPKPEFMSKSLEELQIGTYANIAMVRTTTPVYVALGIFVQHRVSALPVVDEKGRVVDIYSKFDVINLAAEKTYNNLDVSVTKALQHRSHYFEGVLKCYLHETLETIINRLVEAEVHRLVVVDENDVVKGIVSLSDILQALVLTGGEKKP
row,Compound,EC50
1,"CCNS(C)(=O)=Nc1ccc(-c2ccc(-c3nc4[nH]c(O[C@@H]5CO[C@H]6[C@@H]5OC[C@H]6O)nc4cc3Cl)cc2)cc1 (stereo partly drawn) [Example 8, N-{4-[4-(2-{[(3R,3aR,6R,6aR)-6-Hydroxy-hexahydrofuro[3,2-b]furan-3-yl]oxy}-6-chloro-3H-imidazo[4,5-b]pyridin-5-yl)phenyl]phenyl}-N′-ethyl-methanesulfonimidamide]",61 nM
2,CS(=O)(=Nc1ccc(-c2ccc(-c3nc4[nH]c(O[C@@H]5CO[C@H]6[C@@H]5OC[C@H]6O)nc4cc3Cl)cc2)cc1)N1CCC1 (stereo partly shown) [Example 5],15 nM
3,"CCN(C)S(C)(=O)=Nc1ccc(-c2ccc(-c3nc4[nH]c(O[C@@H]5CO[C@H]6[C@@H]5OC[C@H]6O)nc4cc3Cl)cc2)cc1 (stereo partly drawn) [Example 4, N′-{4-[4-(2-{[(3R,3aR,6R,6aR)-6-Hydroxy-hexahydrofuro[3,2-b]furan-3-yl]oxy}-6-chloro-3H-imidazo[4,5-b]pyridin-5-yl)phenyl]phenyl}-N-ethyl-N-methyl-methanesulfonimidamide]",52 nM
4,"CS(=O)(=Nc1ccc(-c2ccc(-c3nc4[nH]c(O[C@@H]5CO[C@H]6[C@@H]5OC[C@H]6O)nc4cc3Cl)cc2)cc1)NC1CC1 (stereo partly drawn) [Example 9, N-{4-[4-(2-{[(3R,3aR,6R,6aR)-6-Hydroxy-hexahydrofuro[3,2-b]furan-3-yl]oxy}-6-chloro-3H-imidazo[4,5-b]pyridin-5-yl)phenyl]phenyl}-N′-cyclopropyl-methanesulfonimidamide]",89 nM
5,"CS(=O)(=Nc1cnc(-c2ccc(-c3nc4[nH]c(O[C@@H]5CO[C@H]6[C@@H]5OC[C@H]6O)nc4cc3Cl)cc2)nc1)N1CCCC1 (stereo partly drawn) [Example 16, (3R,3aR,6R,6aR)-6-({6-Chloro-5-[4-(5-{[methyl(oxo)pyrrolidin-1-yl-λ^6-sulfanylidene]-amino}pyrimidin-2-yl)phenyl]-3H-imidazo[4,5-b]pyridin-2-yl}oxy)-hexahydrofuro[3,2-b]furan-3-ol]",48 nM
6,"CNS(C)(=O)=Nc1ccc(-c2ccc(-c3nc4[nH]c(O[C@@H]5CO[C@H]6[C@@H]5OC[C@H]6O)nc4cc3Cl)cc2)cc1 (stereo partly drawn) [Example 2, N′-{4-[4-(2-{[(3R,3aR,6R,6aR)-6-Hydroxy-hexahydrofuro[3,2-b]furan-3-yl]oxy}-6-chloro-3H-imidazo[4,5-b]pyridin-5-yl)phenyl]phenyl}-N-methyl-methanesulfonimidamide]",20 nM
7,"N#CN=S1(=O)CCCN1c1ccc(-c2ccc(-c3nc4[nH]c(O[C@@H]5CO[C@H]6[C@@H]5OC[C@H]6O)nc4cc3Cl)cc2)cc1 (stereo partly drawn) [Example 17, [(2-{4-[4-(2-{[(3R,3aR,6R,6aR)-6-Hydroxy-hexahydrofuro[3,2-b]furan-3-yl]oxy}-6-chloro-3H-imidazo[4,5-b]pyridin-5-yl)phenyl]phenyl}-1-oxo-1λ^6,2-thiazolidin-1-ylidene)amino]carbonitrile]",202 nM
8,"CS(=O)(=Nc1ccc(-c2ccc(-c3nc4[nH]c(O[C@@H]5CO[C@H]6[C@@H]5OC[C@H]6O)nc4cc3Cl)cc2)cc1)N1CCCC1 (stereo partly drawn) [Example 6, (3R,3aR,6R,6aR)-6-({6-Chloro-5-[4-(4-{[methyl(oxo)pyrrolidin-1-yl-λ^6-sulfanylidene]-amino}phenyl)phenyl]-3H-imidazo[4,5-b]pyridin-2-yl}oxy)hexahydrofuro[3,2-b]furan-3-ol]",54 nM
9,"CN=S(=O)(NC)c1ccc(-c2ccc(-c3nc4[nH]c(O[C@@H]5CO[C@H]6[C@@H]5OC[C@H]6O)nc4cc3Cl)cc2)cc1 (stereo partly drawn) [Example 18, 4-[4-(2-{[(3R,3aR,6R,6aR)-6-hydroxy-hexahydrofuro[3,2-b]furan-3-yl]oxy}-6-chloro-3H-imidazo[4,5-b]pyridin-5-yl)phenyl]-N,N′-dimethyl-benzenesulfonimidamide]",67 nM
10,"CNS(C)(=O)=Nc1ccc(-c2ccc(-c3nc4[nH]c(O[C@@H]5CO[C@H]6[C@@H]5OC[C@H]6O)nc4cc3Cl)cc2)nc1 (stereo partly drawn) [Example 11, N′-{6-[4-(2-{[(3R,3aR,6R,6aR)-6-Hydroxy-hexahydrofuro[3,2-b]furan-3-yl]oxy}-6-chloro-3H-imidazo[4,5-b]pyridin-5-yl)phenyl]pyridin-3-yl}-N-methyl-methanesulfonimidamide]",62 nM
11,"CN(C)S(C)(=O)=NCc1ccc(-c2ccc(-c3nc4[nH]c(O[C@@H]5CO[C@H]6[C@@H]5OC[C@H]6O)nc4cc3Cl)cc2)cc1 (stereo partly drawn) [Example 20, N′—({4-[4-(2-{[(3R,3aR,6R,6aR)-6-Hydroxy-hexahydrofuro[3,2-b]furan-3-yl]oxy}-6-chloro-3H-imidazo[4,5-b]pyridin-5-yl)phenyl]phenyl}methyl)-N,N-dimethyl-methanesulfonimidamide]",82 nM
12,"CC(C)NS(C)(=O)=Nc1ccc(-c2ccc(-c3nc4[nH]c(O[C@@H]5CO[C@H]6[C@@H]5OC[C@H]6O)nc4cc3Cl)cc2)cc1 (stereo partly drawn) [Example 3, N′-{4-[4-(2-{[(3R,3aR,6R,6aR)-6-Hydroxy-hexahydrofuro[3,2-b]furan-3-yl]oxy}-6-chloro-3H-imidazo[4,5-b]pyridin-5-yl)phenyl]phenyl}-N-(propan-2-yl)-methanesulfonimidamide]",94 nM
13,"CS(=O)(=Nc1ccc(-c2ccc(-c3nc4[nH]c(O[C@@H]5CO[C@H]6[C@@H]5OC[C@H]6O)nc4cc3Cl)cc2)cc1)NC1CCC1 (stereo partly drawn) [Example 7, N-{4-[4-(2-{[(3R,3aR,6R,6aR)-6-Hydroxy-hexahydrofuro[3,2-b]furan-3-yl]oxy}-6-chloro-3H-imidazo[4,5-b]pyridin-5-yl)phenyl]phenyl}-N′-cyclobutyl-methanesulfonimidamide]",37 nM
14,"CN=S(=O)(c1ccc(-c2ccc(-c3nc4[nH]c(O[C@@H]5CO[C@H]6[C@@H]5OC[C@H]6O)nc4cc3Cl)cc2)cc1)N(C)C (stereo partly drawn) [Example 15, 4-[4-(2-{[(3R,3aR,6R,6aR)-6-Hydroxy-hexahydrofuro[3,2-b]furan-3-yl]oxy}-6-chloro-3H-imidazo[4,5-b]pyridin-5-yl)phenyl]-N,N,N′-trimethyl-benzenesulfonimidamide]",90 nM
15,"N=S1(=O)CCCN1Cc1ccc(-c2ccc(-c3nc4[nH]c(O[C@@H]5CO[C@H]6[C@@H]5OC[C@H]6O)nc4cc3Cl)cc2)cc1 (stereo partly drawn) [Example 14, 2-({4-[4-(2-{[(3R,3aR,6R,6aR)-6-Hydroxy-hexahydrofuro[3,2-b]furan-3-yl]oxy}-6-chloro-3H-imidazo[4,5-b]pyridin-5-yl)phenyl]phenyl}methyl)-1-imino-1λ^6,2-thiazolidin-1-one]",52 nM
16,"CN(C)S(C)(=O)=Nc1cnc(-c2ccc(-c3nc4[nH]c(O[C@@H]5CO[C@H]6[C@@H]5OC[C@H]6O)nc4cc3Cl)cc2)nc1 (stereo partly drawn) [Example 13, N′-{2-[4-(2-{[(3R,3aR,6R,6aR)-6-hydroxy-hexahydrofuro[3,2-b]furan-3-yl]oxy}-6-chloro-3H-imidazo[4,5-b]pyridin-5-yl)phenyl]pyrimidin-5-yl}-N,N-dimethyl-methanesulfonimidamide]",30 nM
17,"CN(C)S(C)(=O)=Nc1ccc(-c2ccc(-c3nc4[nH]c(O[C@@H]5CO[C@H]6[C@@H]5OC[C@H]6O)nc4cc3Cl)cc2)cc1 (stereo partly drawn) [Example 1, N′-{4-[4-(2-{[(3R,3aR,6R,6aR)-6-Hydroxy-hexahydrofuro[3,2-b]furan-3-yl]oxy}-6-chloro-3H-imidazo[4,5-b]pyridin-5-yl)phenyl]phenyl}-N,N-dimethyl-methanesulfonimidamide]",26 nM
18,"CN(C)S(C)(=O)=Nc1ccc(-c2ccc(-c3nc4[nH]c(O[C@@H]5CO[C@H]6[C@@H]5OC[C@H]6O)nc4cc3Cl)cc2)nc1 (stereo partly drawn) [Example 10, N′-{6-[4-(2-{[(3R,3aR,6R,6aR)-6-Hydroxy-hexahydrofuro[3,2-b]furan-3-yl]oxy}-6-chloro-3H-imidazo[4,5-b]pyridin-5-yl)phenyl]pyridin-3-yl}-N,N-dimethyl-methanesulfonimidamide]",17 nM
19,"CN(C)S(=N)(=O)c1ccc(-c2ccc(-c3nc4[nH]c(O[C@@H]5CO[C@H]6[C@@H]5OC[C@H]6O)nc4cc3Cl)cc2)cc1 (stereo partly drawn) [Example 12, 4-[4-(2-{[(3R,3aR,6R,6aR)-6-Hydroxy-hexahydrofuro[3,2-b]furan-3-yl]oxy}-6-chloro-3H-imidazo[4,5-b]pyridin-5-yl)phenyl]-N,N-dimethyl-benzenesulfonimidamide]",2 nM
